Results on eleven compounds are retold here after ChEMBL document CHEMBL1201862, “PubChem BioAssay data set” (2004).

Among the test systems are A549; KM12; SK-MEL-2; MDA-MB-231; IGROV-1; EKVX; CAKI-1; MDA-MB-435; OVCAR-3; MCF7; HL-60; NCI-H23; BT-549; OVCAR-4; HOP-62; UO-31; K562; 786-0; OVCAR-8; SNB-75.
Common to all, as to experiment: NCI-60 cell line screen, 48 h

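The compound was tested at five concentrations on cells cultured in 96-well plates, with a 48-hour exposure period. The concentration for 50% growth inhibition is given as GI50.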 The source made the active and inactive calls. Cut-off read from the data, not from the text of the source: active = GI50 up to about 1.1 µM and inactive = higher. Where a SMILES comes first, the peptide text is derived from it. [ ]: non-standard residue; d: D form. The star is where a group is joined. mTyr = N[CH](Cc1cccc(O)c1)C(=O)O; Cbz = O=C(OCc1ccccc1)*; OBn = c1ccc(CO*)cc1

For `COc1ccccc1NC(=O)C(C#N)=C(SC)SC`, the GI50 with A549 was > 100 µM (inactive); with KM12, 6.78 µM (inactive); in the test with SK-MEL-2, > 100 µM (inactive); with MDA-MB-231 it was > 100 µM (inactive); in the test on IGROV-1 it was 51.9 µM (inactive); with EKVX, > 100 µM (inactive). Also, the GI50 in the test on CAKI-1 was 61 µM (inactive); in the test on MDA-MB-435, > 100 µM (inactive); in the test on OVCAR-3, > 100 µM (inactive); in the test with MCF7, > 100 µM (inactive); in the test with HL-60, > 100 µM (inactive); in the test with NCI-H23 it was > 100 µM (inactive). The GI50 in the test on BT-549, with OVCAR-4, in the test on HOP-62, in the test on UO-31, with K562 and in the test on 786-0 was > 100 µM (inactive) each time.

Regarding `CO/N=C(\C)CCC#Cc1ccccc1C(=O)OC`, the GI50 in the test with A549, with KM12, in the test on SK-MEL-2, with MDA-MB-231, in the test with IGROV-1 and in the test on EKVX was > 10 µM (inactive) throughout. In addition, the GI50 in the test on CAKI-1, with MDA-MB-435, in the test on OVCAR-3, in the test with MCF7, in the test with HL-60 and with OVCAR-8 was > 10 µM (inactive) in each case. The GI50 in the test on NCI-H23, in the test on BT-549, with OVCAR-4, with HOP-62, in the test on UO-31 and in the test with K562 was > 10 µM (inactive) throughout. For the same compound, in the test on 786-0, the GI50 was > 10 µM (inactive).

With `O=C(CCc1cccc(O)c1)NCCc1cccc(OCc2ccccc2)c1`, the GI50 in the test with A549 was 28.1 µM (inactive); in the test with KM12, 6.81 µM (inactive); with SK-MEL-2, 15.6 µM (inactive); with MDA-MB-231 it was 18.5 µM (inactive); in the test on IGROV-1 it was 8.93 µM (inactive); in the test with EKVX, 21.5 µM (inactive). For the same compound, the GI50 in the test with CAKI-1 is 26.9 µM (inactive); in the test on MDA-MB-435, 14.9 µM (inactive); in the test with OVCAR-3, 6.55 µM (inactive); in the test with MCF7, 18.8 µM (inactive); in the test on HL-60, 28.4 µM (inactive); in the test on OVCAR-8, 26.7 µM (inactive). Also, the GI50 with NCI-H23 is 18.9 µM (inactive); in the test on BT-549, 16.1 µM (inactive); with OVCAR-4 it was 20.1 µM (inactive); with HOP-62 it was 15.3 µM (inactive); in the test on UO-31, 8.93 µM (inactive); with K562 it was 20.5 µM (inactive). For the same compound, in the test on 786-0, the GI50 was 25.4 µM (inactive).

Turning to `Nc1cc(OCC2CCCCC2)nc(N)n1`, the GI50 is 93.8 µM (inactive) with A549; > 100 µM (inactive) in the test with KM12; > 100 µM (inactive) in the test on SK-MEL-2; > 100 µM (inactive) in the test on MDA-MB-231; 67.9 µM (inactive) in the test with IGROV-1; 57.1 µM (inactive) in the test with EKVX. In addition, the GI50 in the test with CAKI-1 is > 100 µM (inactive); in the test with MDA-MB-435, > 100 µM (inactive); in the test on OVCAR-3 it was > 100 µM (inactive); in the test with HL-60, > 100 µM (inactive); with OVCAR-8 it was > 100 µM (inactive); in the test with NCI-H23, 84.5 µM (inactive). For the same compound, the GI50 with SNB-75 was 61.2 µM (inactive); in the test on BT-549 it was > 100 µM (inactive); in the test with OVCAR-4 it was > 100 µM (inactive); in the test on HOP-62, > 100 µM (inactive); with UO-31, > 100 µM (inactive); with K562, > 100 µM (inactive). Further, the GI50 in the test with 786-0 was > 100 µM (inactive).

As to `COC(=O)C(Cc1cccc(O)c1)NC(=O)C(CC(=O)OCc1ccccc1)NC(=O)OCc1ccccc1` (stereo not given) (Cbz-Asp(OBn)-[mTyr]-OMe; configuration not given here), the GI50 in the test on A549 was > 100 µM (inactive); in the test with KM12, > 100 µM (inactive); with SK-MEL-2 it was > 100 µM (inactive); in the test on MDA-MB-231 it was > 100 µM (inactive); in the test on IGROV-1 it was 30.6 µM (inactive); with EKVX it was > 100 µM (inactive). For the same compound, the GI50 in the test with MCF7 was > 100 µM (inactive); with HL-60 it was 35.4 µM (inactive); in the test with OVCAR-8, > 100 µM (inactive); with NCI-H23, > 100 µM (inactive); with SNB-75, > 100 µM (inactive); in the test with BT-549, > 100 µM (inactive). The GI50 in the test on HOP-62 was > 100 µM (inactive); with UO-31, 65.3 µM (inactive); in the test with K562, > 100 µM (inactive); in the test on 786-0, > 100 µM (inactive).

As to `O=C(O)CNn1c(SCC(=O)O)nnc(/C=C/c2c(O)ccc3ccccc23)c1=O`, the GI50 was 44.2 µM (inactive) in the test with A549; 31.6 µM (inactive) with KM12; 61.8 µM (inactive) in the test on SK-MEL-2; 0.15 µM (active) in the test on IGROV-1; 14.3 µM (inactive) in the test with EKVX; 29.5 µM (inactive) with CAKI-1. In addition, the GI50 with MDA-MB-435 was 75.7 µM (inactive); with OVCAR-3, 22.7 µM (inactive); in the test with MCF7, 24 µM (inactive); with HL-60, 9.98 µM (inactive); in the test on OVCAR-8, 3.79 µM (inactive); in the test with NCI-H23 it was 17.1 µM (inactive). In addition, the GI50 with BT-549 is 15 µM (inactive); in the test on OVCAR-4 it was 14.1 µM (inactive); with HOP-62, 16.1 µM (inactive); in the test with UO-31 it was 29.4 µM (inactive); with K562, 25.5 µM (inactive); in the test on 786-0 it was 30.3 µM (inactive).

Regarding `COC(=O)[C@@]1(C)CCC[C@]2(C(=O)O)C3Cc4occc4[C@H](C)[C@@H]3CCC21` (stereo not given in full), the GI50 with A549 is 38.5 µM (inactive); in the test on KM12 it was 49.3 µM (inactive); in the test with SK-MEL-2, 51.2 µM (inactive); with MDA-MB-231 it was > 100 µM (inactive); in the test with IGROV-1, 44.6 µM (inactive); in the test with EKVX, 39.1 µM (inactive). For the same compound, the GI50 in the test with MDA-MB-435 was 80.5 µM (inactive); with OVCAR-3 it was > 100 µM (inactive); in the test with MCF7, > 10 µM (inactive); in the test on HL-60, 41.1 µM (inactive); in the test with OVCAR-8 it was 68.1 µM (inactive); with NCI-H23, > 100 µM (inactive). The GI50 in the test on BT-549 was 91.6 µM (inactive); in the test on HOP-62, 34 µM (inactive); in the test with UO-31, 42.7 µM (inactive); with K562 it was 29.2 µM (inactive); in the test on 786-0, 73.1 µM (inactive).

Take `COc1ccc(-c2c(N)n(-c3cccc(C(=O)O)c3)c(=O)c3cc([N+](=O)[O-])ccc23)cc1`: the GI50 with A549, in the test with KM12, with SK-MEL-2, in the test with IGROV-1, in the test on EKVX and in the test on CAKI-1 was > 100 µM (inactive) throughout. Also, the GI50 in the test on MDA-MB-435, in the test on OVCAR-3, in the test with MCF7, in the test with HL-60, in the test on OVCAR-8 and in the test with NCI-H23 was > 100 µM (inactive) in each case. For the same compound, the GI50 in the test on SNB-75, with BT-549, with OVCAR-4, in the test on HOP-62, with UO-31 and in the test on K562 was > 100 µM (inactive) in each case. Also, the GI50 with 786-0 is > 100 µM (inactive).

`O=Cc1ccc2ccocc1-2`: the GI50 with A549, with KM12, in the test on SK-MEL-2, in the test with MDA-MB-231, in the test on IGROV-1 and in the test with EKVX was > 100 µM (inactive) each time. Further, the GI50 in the test on CAKI-1, with MDA-MB-435, in the test on OVCAR-3, with MCF7, with HL-60 and in the test on OVCAR-8 was > 100 µM (inactive) in each case. Moreover, the GI50 in the test with NCI-H23, in the test with BT-549, with OVCAR-4, in the test with HOP-62, in the test with UO-31 and with K562 was > 100 µM (inactive) throughout. In addition, the GI50 in the test on 786-0 was > 100 µM (inactive).

Consider `Cc1ccccc1Nc1nc2c(s1)C(=O)c1ccccc1C2=O`, for which the GI50 was 10.2 µM (inactive) with A549; 9.38 µM (inactive) with KM12; 16.7 µM (inactive) in the test on SK-MEL-2; 3.41 µM (inactive) in the test with MDA-MB-231; 9.55 µM (inactive) with IGROV-1; 13.3 µM (inactive) in the test on EKVX. Besides, the GI50 was 16.5 µM (inactive) with CAKI-1; 2.24 µM (inactive) in the test on OVCAR-3; 2 µM (inactive) with MCF7; 2.31 µM (inactive) in the test on HL-60; 2.86 µM (inactive) with OVCAR-8; 3.43 µM (inactive) with NCI-H23. The GI50 in the test on SNB-75 is 15.3 µM (inactive); with BT-549 it was 2.46 µM (inactive); in the test with OVCAR-4, 2.02 µM (inactive); in the test on HOP-62, 16.4 µM (inactive); in the test with UO-31 it was 5.07 µM (inactive); in the test with K562, 3.07 µM (inactive). In the test on 786-0, the GI50 was 2.95 µM (inactive).

As for `O=Cc1ccc2[nH]c(=O)oc2c1`, the GI50 in the test on KM12, in the test on SK-MEL-2, with MDA-MB-231, in the test with IGROV-1, with EKVX and with CAKI-1 was > 100 µM (inactive) in each case. Moreover, the GI50 in the test with MDA-MB-435 is > 100 µM (inactive); in the test on OVCAR-3, > 100 µM (inactive); in the test on MCF7, > 100 µM (inactive); in the test with HL-60 it was 99.5 µM (inactive); in the test with OVCAR-8 it was > 100 µM (inactive); in the test with NCI-H23 it was > 100 µM (inactive). Also, the GI50 is > 100 µM (inactive) in the test on BT-549; > 100 µM (inactive) in the test with HOP-62; 23.1 µM (inactive) with UO-31; > 100 µM (inactive) with K562; > 100 µM (inactive) in the test on 786-0.
